Results: patent US20110020914A1, “METHODS FOR ENHANCING GROWTH OF ORGANISMS IN AN AQUEOUS GROWTH MEDIUM” (NOVUS INTERNATIONAL INC, priority 2009, published 2011)

Columns and labels:
Assay type in all cases: cell-based
Chlorella vulgaris [1] = assay: Effect of chelated micronutrients on growth (cell density, spectrophotometer 450 nm) of Chlorella vulgaris; conditions: up to 24 days, vs control
Description: To assess the efficacy of chelated micronutrients on the growth of Chlorella vulgaris, a fresh-water green microalgae, the following experiment was conducted. Chlorella vulgaris microalgae were maintained in stock cultures as described in Example 1. The microalgae were inoculated at an initial concentration of about 10^4 cells/ml into 250 ml conical flasks containing 100 ml of an algal growth medium having a composition described in Table 3.
Three different chelated micronutrient compositions were added to the growth medium of the flasks at six different concentrations to each algal culture for final concentrations of 0 mg/ml (control), […], 10^−4 mg/ml, 10^−3 mg/ml and 10^−2 mg/ml. The metal micronutrient compositions tested were Cu-HMTBA (BIOX-C), Zn-HMTBA (BIOX-Z), and Mn-HMTBA (BIOX-M). For each concentration of a particular micronutrient composition, three duplicate flasks were tested.
The flasks containing the added compounds were cultured in a chamber in which the temperature was maintained at 21° C.-25° C. In addition, the chamber provided continuous uniform illumination with a quantum flux of 0.72 10-20 photon/m^2+/−20% in the spectral range of 400-700 nm (8000 flux). The contents of the flasks were shaken, stirred, or aerated during the experiment to facilitate the transfer of CO2 to the microalgae.
Samples from each flask were taken after 2, 7, 12, 15, 18, 21, and 24 days of growth in the flasks and analyzed in quadruplicate to determine the cell density of the microalgae. The cell density was determined using a spectrophotometer at a wavelength setting of 450 nm and using a filtered growth medium sample as a blank. The sample volume analyzed was 100 μL per well.

Chlorella vulgaris [2] = assay: Effect of chelated micronutrients on lipid accumulation (Nile Red fluorescence) in Chlorella vulgaris
Description: To assess the efficacy of chelated micronutrients on the lipid content of Chlorella vulgaris, a fresh-water green microalgae, the following experiment was conducted. Chlorella vulgaris microalgae colonies were cultured in algal culture media containing added BIOX-C, BIOX-Z, and BIOX-M as described in Example 3. Samples from each flask were taken after 9, 30, and 39 days of growth in the flasks and analyzed in triplicate to determine the lipid content of the microalgae cells. A fluorometric method was used determine cellular lipid accumulation. 4-mL culture samples were mixed with Nile Red (9-diethylamino-5H-benzophenoxazine-5-one) at a 100:1 volume ratio and allowed to stain for about seven minutes. Cytoplasmic lipids were then measured by the florescence intensity using a fluorometer (excitation 475 nm; emission 585 nm). The relative fluorescence for lipid content was obtained after subtraction of both the autofluorescence of algal cells and the self-fluorescence of the Nile Red dye from the uncorrected readings at 585 nm wavelengths.

Chlorella vulgaris [3] = assay: Effect of chelated micronutrients on protein content (Coomassie Blue G, 595 nm) of Chlorella vulgaris
Description: To assess the efficacy of chelated micronutrients on the protein content of Chlorella vulgaris, a fresh-water green microalgae, the following experiment was conducted. Chlorella vulgaris microalgae colonies were cultured in algal culture media containing added BIOX-C, BIOX-Z, and BIOX-M as described in Example 3.
Samples from each flask were taken after 2, 7, 12, 15, 21, and 30 days of growth in the flasks and analyzed in triplicate to determine the protein content of the microalgae cells. The protein contents of the microalgal colonies were determined by using a spectrophotometer to measure microalgal cells in which the proteins were marked with a dye. 0.04-mL culture samples were gently mixed with 2 ml of Coomassie Blue G dye in a 4 mL plastic cuvette. Cytoplasmic proteins were then measured by measuring the absorbance of the dyed sample at a wavelength of 595 nm using a […].

Dunaliella tertiolecta = assay: Effect of chelated zinc on growth (cell density, haemocytometer) of Dunaliella tertiolecta; conditions: cultured with 10^−6 to 10^−2 mg/ml in f/2 medium, 18 days, vs control
Description: To assess the efficacy of adding HMTBA-chelated zinc (BIOX-Z) to the growth medium on the growth of the microalgae Dunaliella tertiolecta, the following experiment was conducted. Dunaliella tertiolecta was maintained in stock cultures in 20 ml test tubes at a cell density of about 2.5-5.0×10^4 cells/ml as seed cultures and maintained on a seven-day transfer cycle. The microalgae were inoculated into 1 L Pyrex glass Erlenmeyer flasks containing 250 ml of f/2 growth medium (Guillard 1975).
BIOX-Z was dissolved in distilled water and added at six different concentrations to each algal culture for final concentrations of 0 mg/ml (control), 10^−6 mg/ml, 10^−5 mg/ml, 10^−4 mg/ml, 10^−3 mg/ml and 10^−2 mg/ml. Each of the six test groups included 3 individual flasks.
The D. tertiolecta cells were grown in the flasks at a temperature of about 20° C. for a total of 18 days. Light was supplied to the cultures on a cycle of 12 hours of light and 12 hours of dark, at an intensity of 133-299 uEin/sec/cm^2 using a fluorescent light bulb bank (2-F20T12 Westinghouse cool white, Westinghouse Electric Corp., USA). Five samples from each of the test groups were taken each day, and the cell density of each sample was determined using a haemocytometer.

Nitzchia sp. microalgae = assay: Effect of chelated zinc on growth (cell density) of Nitzchia sp. microalgae; conditions: 10^−3 mg/ml, 18 days, vs control
Description: To assess the efficacy of HMTBA-chelated zinc (BIOX-Z) on the growth of microalgae from the genus Nitzchia, the following experiment was conducted. Microalgae from the genus Nitzchia was maintained in stock cultures as described in Example 1. The microalgae were inoculated into 1 L flasks and varying amounts of BIOX-Z were added to the flasks as described in Example 1. The Nitzchia cells were grown in the flasks as described in Example 1 for a total of 18 days. Samples were taken from the flasks each day to assess the cell density as described in Example 1.

[4] = all concentrations, after 30 days of growth
[5] = 0.000001-0.0001 mg/mL, after thirty days of growth
[6] = 0.001 mg/mL, thirty days of growth
[7] = all concentrations, through the entire period of growth

Structure (SMILES) | growth of Chlorella vulgaris (cell density) (Chlorella vulgaris [1]; 10^−2 mg/mL) | growth of Chlorella vulgaris (cell density) (Chlorella vulgaris [1]; 10^−3 mg/mL) | growth of Chlorella vulgaris (cell density) (Chlorella vulgaris [1]; 10^−4 mg/mL) | growth of Chlorella vulgaris (cell density) (Chlorella vulgaris [1]; 10^−5 mg/mL) | growth of Chlorella vulgaris (cell density) (Chlorella vulgaris [1]; 10^−6 mg/mL) | lipid content of Chlorella vulgaris cells (Chlorella vulgaris [2]; [4]) | protein content relative to control (Chlorella vulgaris [3]; [5]) | protein content relative to control (Chlorella vulgaris [3]; [6]) | further results
CSCCC(O)C(=O)[O-].CSCCC(O)C(=O)[O-].[Cu+2] (stereo not shown) [BIOX-C, Cu-HMTBA] | inhibited | no effect | enhanced | enhanced | enhanced | enhanced | 10-12 times the control protein content | about 4.5 times the control protein content | enhancement of microalgal lipid content compared with all compositions tested (Chlorella vulgaris [2]; 10^−2 mg/mL): largest enhancement; lipid content of Chlorella vulgaris cells (Chlorella vulgaris [2]; 10^−2 mg/mL, after 39 days of growth): higher lipid content than the control colony; lipid content of Chlorella vulgaris cells (Chlorella vulgaris [2]; 10^−3 mg/mL, after 39 days of growth): higher lipid content than the control colony; lipid content of Chlorella vulgaris cells (Chlorella vulgaris [2]; all concentrations, after 9 days of growth): enhanced; protein content of the microalgae cells (Chlorella vulgaris [3]; 0.01 mg/mL, vs control cells): inhibited; protein content relative to control (Chlorella vulgaris [3]; 10^−4 mg/mL, after thirty days of growth, largest enhancement of all compositions tested): about 12.8 times the control protein content; protein content of Chlorella vulgaris cells (Chlorella vulgaris [3]; all concentrations except 0.01 mg/mL, at twelve days of growth or longer): enhanced
CSCCC(O)C(=O)[O-].CSCCC(O)C(=O)[O-].[Mn+2] (stereo not shown) [BIOX-M, Mn-HMTBA] | enhanced | inhibited | enhanced | enhanced | enhanced | enhanced | 10-12 times the control protein content | 7-8 times the control protein content | lipid content of Chlorella vulgaris colonies (Chlorella vulgaris [2]; 10^−5 mg/mL, after 39 days): enhanced to a lesser degree; lipid content of Chlorella vulgaris colonies (Chlorella vulgaris [2]; 10^−6 mg/mL, after 39 days): enhanced to a lesser degree; lipid content of Chlorella vulgaris colonies (Chlorella vulgaris [2]; concentrations of less than 10^−2 mg/mL, after nine days): enhanced; protein content relative to control (Chlorella vulgaris [3]; 0.01 mg/mL, thirty days of growth): 7-8 times the control protein content; protein content of Chlorella vulgaris colonies (Chlorella vulgaris [3]; all concentrations, after 21 days or more of growth): enhanced
CSCCC(O)C(=O)[O-].CSCCC(O)C(=O)[O-].[Zn+2] (stereo not shown) [BIOX-Z, Zn-HMTBA] | no effect | enhanced | enhanced | enhanced | enhanced | – | – | – | concentration of D. tertiolecta cells (Dunaliella tertiolecta): enhanced; concentration of Nitzchia cells (Nitzchia sp. microalgae): enhanced; lipid content of Chlorella vulgaris cells, concentration of greatest enhancement (Chlorella vulgaris [2]; 10^−3 mg/mL): most enhanced; lipid content of Chlorella vulgaris cells (Chlorella vulgaris [2]; [7]): enhanced; protein content of Chlorella vulgaris cells, concentration of greatest enhancement (Chlorella vulgaris [3]; 10^−5 mg/mL): most enhanced; protein content relative to control (Chlorella vulgaris [3]; 10^−5 mg/mL, after 30 days of growth): over twelve times; protein content of Chlorella vulgaris cells (Chlorella vulgaris [3]; [7]): enhanced
